Where “and” joins values, the source holds several entries; their conditions need not be identical. Identical values can stand only once. Counter-ions that a name gives are not always drawn. Like-named read-outs stand apart in the source and are kept apart here.
Key:
[1] = system: guinea pig tracheal rings; experiment: Organ bath muscle force, TEA-induced contraction of guinea pig tracheal rings (Examples 1, 4, 13); conditions: for relaxation of TEA-induced contraction: 10 mM TEA
Method: Epithelial denuded guinea pig tracheal rings were suspended in organ baths under 1 g resting tension with continuous digital recordings of muscle force. In separate studies, guinea pig airway smooth muscle cells were enzymatically dispersed and cultured.
Human muscle tissue was acquired from excess lung airways trimmed during surgery from healthy lung transplant donors. Acquired tissue was stored overnight at […]. Airway smooth muscle contractions measured ex vivo in organ baths were performed as previously described (Gallos et al., 2008; Gallos et al., 2009, Gallos et al., 2011; Gleason et al., 2010; Yim et al., 2011; Mitzuta et al., 2008). Closed guinea pig tracheal rings or strips of human airway smooth muscle (tracheal or main stem bronchus) were suspended in organ baths, which had 95% oxygen constantly perfusing through Dulbecco's Modified Eagle Medium. Rings were cut on the cartilaginous borders of the smooth muscle. The epithelial layer was dissected under microscopic assistance. Briefly, tissues were suspended in a water-jacketed (37° C.) 2-ml organ bath (Radnoti Glass Technology, Monrovia, Calif.) and attached to a Grass FT03 force transducer (Grass Telefactor, West Warwick, R.I.) coupled to a computer via BioPac hardware and Acqknowledge 7.3.3 software (Biopac Systems, Goleta, Calif.). Kreb's-Henseleit (KH) buffer was continuously bubbled with 95% oxygen and 5% carbon dioxide and tissues were allowed to equilibrate at 1 g (guinea pig) or 1.5 g (human) isotonic force for 1 hour with fresh KH buffer changes every 15 minutes.
Following equilibration, in guinea pig experiments, the capsaicin analog N-vanillylnonanamide (10 μM final) was added to the organ baths to first activate and then deplete nonadrenergic, noncholinergic nerves. […]. In experiments with human tissue, no vanillylnonanamide pretreatment was done. To avoid bias between treatment groups, tissues were contracted to individually calculated EC50 values for acetylcholine and tissues with similar Emax values were randomly assigned to treatments within individual experiments. Following extensive KH buffer changes (8-9 times) tissues were allowed to stabilize at isotonic resting tension (about 1.0 g). To remove confounding effects of other procontractile pathways, each bath received a complement of antagonists 20 minutes prior to subsequent contractile challenge. The antagonists included pyrilamine (10 μM; H1 histamine receptor antagonist), and tetrodotoxin (1 μM; blocker of endogenous cholinergic or C-fiber neuronal effects) in guinea pig experiments or pyrilamine and 10 μM MK571 (leukotriene receptor antagonist) in human tissue experiments. […]
Airway smooth muscle contractions measured ex vivo in organ baths were performed as set forth above. […]

[2] = system: human airway smooth muscle cells; experiment: MQAE fluorescence assay of intracellular chloride; format: cell-based; conditions: 10 mM TEA-acetate
Method: To determine whether blockade of CaCCs or NKCCs induce changes in intracellular chloride concentrations in human airway smooth muscle cells, the MQAE in vitro fluorescent dye assay (Invitrogen) was used. Briefly, human airway smooth muscle cells were grown to 100% confluence in 96-well black-walled plates. Cells were loaded overnight with 10 mM MQAE in serum-free basal cell culture medium (M199, Invitrogen) and were washed once with warmed (37° C.) normal-chloride buffer [consisting of (in mM) 130 sodium chloride, 2 CaCl2, 1 MgCl2, 10 D-glucose, and 10 HEPES, pH 7.4]. […] An increase in fluorescence represents decreased intracellular chloride (removal of halide quenching of MQAE) while decreased fluorescence represents increased intracellular chloride (enhanced halide quenching of MQAE).

[3] = system: guinea pig tracheal rings; experiment: Relaxation of potassium gluconate contraction in guinea pig tracheal rings; conditions: 100 μM; 80 mM potassium gluconate
Method: (§1) Animal protocols were approved by the Columbia University Animal Care and Use Committee. Male Hartley guinea pigs weighing approximately 400 g were anesthetized with intraperitoneal injection of sodium pentobarbital (100 mg/kg). Trachea were removed and transferred to ice cold Krebs-Henseleit (KH) buffer of the following composition (in mM): NaCl 118, KCl 5.6, CaCl2 0.5, MgSO4 0.24, NaH2PO4 1.3, NaHCO3 25, glucose 5.6, pH 7.4. Epithelial-denuded tracheal rings were prepared using a dissecting microscope. Epithelium was removed by gently passing cotton fibers through the lumen of the tracheal rings. The rings were suspended in 4 mL-water jacketed organ baths (37° C.: Radnoti Glass Technology, Monrovia, Calif.) and connected to a Grass FT03 force transducer (Grass Telefactor, West Warwick, R.I.) using silk sutures. The transducers were coupled to the computer with BioPac hardware and data was collected using Acqknowledge 7.3.3 software (BioPac Systems, Goleta, Calif.). KH buffer was bubbled with a gas mixture of 95% oxygen and 5% carbon dioxide and buffer was exchanged every 15 minutes for 1 hour during equilibration of tracheal rings at 1 g resting tension. […].
Many chloride channel blockers are known to also stimulate potassium channels (Greenwood et al., 2007). Thus, we performed additional studies in the presence of a large extracellular concentration of potassium to ensure that our findings of compound 1 or 13 inhibiting a TEA-induced depolarizing contraction were not due to these compounds opening a potassium channel.

[4] = system: human airway smooth muscle; experiment: Relaxation of acetylcholine contraction in human airway smooth muscle strips; conditions: 100 μM alone; EC50 acetylcholine
Method: Studies using de-identified human tissue were reviewed by the Columbia University Institutional Review Board and deemed not human subjects research. Tissues were obtained from healthy, normal organ donor discarded surgical waste subsequent to lung transplant surgery. Tissues were collected after transplant and placed in DMEM media (GIBCO) and bubbled overnight in 5% carbon dioxide and 95% oxygen at 4° C. The following morning, the smooth muscle tissue was carefully dissected under a dissecting microscope and the epithelium removed. The strips were anchored in the organ bath as described above using KH buffer of the same composition. The strips were allowed to equilibrate for 1 hour with buffer exchanges every 15 minutes and were treated with 10^−6 M tetrodotoxin, 10^−5 M pyrilamine, and 10^−5
M MK571. Strips were contracted with an EC50 dose of acetylcholine (Ach)
This experiment was then repeated with human airway smooth muscle to investigate clinical relevance as a model of bronchospasm in humans.

[5] = system: human airway smooth muscle cells; experiment: FLIPR membrane potentiometric dye assay (Example 21); format: cell-based
Method: Immortalized airway smooth muscle cell lines modified to stably express human telomerase reverse transcriptase were a kind gift from Dr. William Gerthoffer (University of Southern Alabama, Mobile, Ala.) prepared as described previously (Gosens et al., 2006) and grown in Dulbecco's Modified Eagle's Medium/F12 media (GIBCO, Grand Island, N.Y.), with 10% FBS and antibiotics.
Immortalized human airway smooth muscle cells were cultured on black-walled 96 well plates to 100% confluence, and were washed four times with warmed (37° C.) assay buffer of the following composition (in mM): NaCl 140, KCl 4.7, CaCl2 2.5, MgCl2 1.2, HEPES 11, D-glucose 10. A stock solution (100% dye) of FLIPR blue dye was prepared by reconstitution of 1 vial (125 mg) with 100 ml assay buffer. A 50% working stock was prepared by further diluting the reconstituted blue dye 1:1 with assay buffer and was used to load cells (90 μl/well) over 45 min at 37° C. in a humidified cell culture incubator (95% air/5% CO2). All reagents were dissolved in assay buffer. Fluorescence was measured with a Flex Station 3 (Molecular Devices) using an excitation wavelength of 530 nm, emission wavelength of 565 nm and a cutoff filter of 550 nm. Baseline fluorescence was measured every 2 seconds for 1 minute then for 2 minutes after injection of vehicle or compound of interest as indicated (using the Flexstation's 3 integrated injection capabilities).
Human airway smooth muscle cells were incubated with FLIPR membrane potentiometric dye to assess if the chloride channel blockers changed membrane potential at the cellular level. FLIPR fluorescence will increase with depolarization, and decrease with hyperpolarization. […] Therefore, chloride channel blockade, but not NKCC blockade, hyperpolarized human airway smooth muscle cells.

[6] = system: guinea pig tracheal rings; experiment: Relaxation of TEA contraction in guinea pig tracheal rings (Example 16, library screen); conditions: 10 mM TEA
Method: as §1

[7] = system: guinea pig tracheal rings; experiment: Potentiation of isoproterenol relaxation of acetylcholine contraction, guinea pig tracheal rings; conditions: Cavia porcellus, read-out: EC50 of isoproterenol-mediated relaxation of an acetylcholine contraction
Method: as §1
Therefore, we tested whether the chloride channel blockers or modulation of chloride flux could be used in combination with β-agonists to potentiate their effects. […]. Therefore, a combination of treatment with compound 13 and bumetanide potentiated the relaxation effect of isoproterenol.

rat lung slices = experiment: Airway lumen area in peripheral small airways of rat lung slices; conditions: contractile agonists
Method: The measurement of airway contraction of a luminal area of small lung airways using the ex vivo rat lung slice method was performed as described (Perez-Zoghbi et al., 2007). The trachea was cannulated with an intravenous catheter, and after the chest cavity was opened, the collapsed lungs were reinflated with 1.3±0.1 ml of 2% agarose (low-gelling temperature) in Sigma-Hanks' Balanced Salt solution (sHBSS), followed by the injection of 0.2±0.1 of air to flush the agarose-sHBSS out of the airways and into the distal alveolar space. Subsequently, a warm (37° C.) solution of gelatin (type A, porcine skin, 300 bloom, 6% in sHBSS) was perfused through the intrapulmonary blood vessels via the pulmonary artery by injecting about 0.3 ml into the right ventricle. The warm agar and gelatin were gelled with cold sHBSS. A single lung lobe was removed and cut into serial sections of about 130 μm thick with a vibratome at about 4° C., starting at the lung periphery. Slices were maintained in DMEM (Invitrogen) at 37° C. and 10% CO2 for up to 3 days. At 37° C., the gelatin in the blood vessel lumen dissolved, leaving the blood vessel lumen empty. Lung slices were mounted in a custom-made perfusion chamber and held in place with a small sheet of nylon mesh. A second cover glass edged with silicone grease was placed over the lung slice. Perfusion of the lung slice was performed using a gravity-fed perfusion system. The volume of the chamber was about 100 μl with a perfusion rate of about 800 μl/min. […] Digital images were recorded in time lapse (30 frames/min). The area of the bronchiole and arteriole lumen was calculated, from each image, by pixel summing using custom-written software. Experiments were performed at room temperature.

[8] = system: human airway smooth muscle cells; experiment: FLIPR potentiometric dye membrane potential assay (Examples 9, 12); format: cell-based; conditions: 10 μM
Method: To determine whether blockade of CaCCs or NKCCs induce membrane potential changes in cultured human airway smooth muscle cells, the FLIPR in vitro fluorescent dye assay (Molecular Devices) was used as described by Wafford et al. (2009). Briefly, human airway smooth muscle cells were grown to 100% confluence in 96-well black-walled plates and were washed with warmed (37° C.) normal-chloride buffer [consisting of (in mM) 130 sodium chloride, 2 CaCl2, 1 MgCl2, 10 D-glucose, and 10 HEPES, pH 7.4] four times. A stock solution (100% dye) of FLIPR blue dye (Molecular Devices) was prepared by reconstitution of 1 vial (125 mg) with 100 ml of the normal-chloride buffer (assay buffer). A 50% working stock was prepared by further diluting the reconstituted blue dye 1:1 with assay buffer and was used to load cells (90 μl/well) over 20 minutes at 37° C. All reagents were dissolved in assay buffer. Baseline fluorescence was measured for 3 minutes prior to the first control additions (assay buffer). […] The fluorescence produced by membrane potential change following solution additions was quantified after subtracting changes induced by assay buffer alone.

## O=C(O)c1cccnc1Nc1cccc(C(F)(F)F)c1 [water-soluble NFA, sodium salt of niflumic acid]
[1]; 10 μM, water soluble form compared to hydrophobic parent NFA
  potency at relaxing airway smooth muscle (muscle force at 60 minutes as a percent of initial force after TEA treatment): enhanced potency

## COC(=O)C1=C(C)NC(C)=C(C(=O)OC)C1c1ccccc1[N+](=O)[O-] [nifedipine]
[1]; 10 μM nifedipine
  relaxation of TEA-induced contraction: 111%

## CC(=O)[O-].CC[N+](CC)(CC)CC [TEA-acetate, tetraethylammonium (TEA)-acetate]
[2]
  intracellular chloride (MQAE fluorescence): decreased intracellular chloride concentrations

## NS(=O)(=O)c1cc(C(=O)O)c(NCc2ccco2)cc1Cl [furosemide]
[1]; 300 μM furosemide
  relaxation of TEA-induced contraction: 77.6%

## O=C(O)c1cc(Cl)ccc1NCc1ccc(Cl)cc1 [compound 1, 5-chloro-2-((4-chlorobenzyl)amino)benzoic acid]
[3]
  percent of potassium gluconate-induced contraction at 30 minutes: 61.46%±6.3 and 61.5%±6.3
[4]
  relaxation of acetylcholine contraction: 45.4%±6.3
[5]
  membrane potential, continuous fluorescence recording (representative tracing): hyperpolarize
[5]; 100 μM, n=12
  change in relative fluorescent units (membrane potential, FLIPR): −240.3+/−35 RFU
[6]; 100 μM
  percent of the TEA-induced contraction remaining at 15 minutes: 23.8±14.9%
  relaxed fraction of a TEA-induced contraction at 15 minutes after drug addition: 76.2%
[6]
  relaxation of TEA-induced contraction (screen of 20-compound chloride channel blocker library): most potently relax
[6]; representative tracing
  time to complete relaxation of TEA contraction: ≤ 15 min

## CC(C)NCC(O)c1ccc(O)c(O)c1 (stereo not shown) [isoproterenol]
[7]; vehicle
  EC50: 5.99 nM
[7]; with 10 μM bumetanide
  EC50: 2.51 nM
[7]; with 50 μM compound 13
  EC50: 2.7 nM
[7]; with 50 μM compound 13 and 10 μM bumetanide
  EC50: 0.477 nM

## [Cl-].[K+] [KCl, potassium chloride]
Rat lung slices
  percent decrease in lumen area compared to rest: significant decrease in lumen area

## O=c1[nH]c2cc(C(F)(F)F)ccc2n1-c1cc(C(F)(F)F)ccc1O [NS1619]
[8]
  membrane potential change (FLIPR): positive control for hyperpolarization
[5]
  membrane potential, continuous fluorescence recording (representative tracing): hyperpolarize
